Results on eight compounds are retold here after patent US7846903B2, “Type II cubic liquid crystal composition” (National Institute of Advanced Industrial Science and …, priority 2004, dated 2010).

The nature of series [1]: Krafft temperature (TK) by DSC of amphiphilic compound/water system. It counts as physicochemical. The settings on record: for TK (Krafft temperature): compound/water system. As to the method: Liquid crystals such as cubic liquid crystals formed by amphiphilic lipids are formed only at the Krafft temperature (TK), as determined depending on types and concentrations of amphiphilic lipids, or higher. Furthermore, liquid crystals generally undergo a phase transition upon changes in the concentration of the amphiphilic lipid or temperature. Accordingly, the maximal temperature (Tmax) at which a given liquid crystal structure can be stably present is also determined depending on lipid type and concentration of amphiphilic lipid. Thus, a liquid crystal structure formed by a given type of amphiphilic lipid is stably formed in the temperature range between TK and Tmax. The correlation between TK-Tmax and the concentration of the amphiphilic lipid is generally indicated as a “concentration-temperature dependent phase diagram” of the amphiphilic lipid/water system. The Krafft temperature of the amphiphilic lipid can be determined by a method known in the art, such as a method involving the preparation of such a phase diagram (e.g., Laughlin, R. G., “The Aqueous Phase Behavior of Surfactants,” 1994, Academic Press London, pp. 106-117). The Krafft temperature of a mixture of two or more amphiphilic lipids can be determined by the same method.
In the cubic liquid crystal composition of the present invention, stable bicontinuous type II cubic liquid crystals are formed at low temperatures, such as lower than 6° C. In the liquid crystal composition of the present invention, stable bicontinuous type II cubic liquid crystals are typically formed between −10° C. (or at the freezing temperature of the aqueous medium used or higher) and 80° C., and preferably between 0° C. and 50° C. The Krafft temperature of the amphiphilic lipid can be easily determined by, for example, DSC assay of an aqueous solution containing 1% to 85% by mass of amphiphilic lipid or by observing the melting behavior of the amphiphilic lipid under a (polarizing) microscope. More precisely, such temperature may be determined in accordance with a conventional technique involving the preparation of a phase diagram (e.g., Laughlin, R. G., “The Aqueous Phase Behavior of Surfactants,” 1994, Academic Press, London, pp. 106-117).
The Krafft temperatures of these amphiphilic compounds and mixtures thereof determined by the analyses described below are shown in Table 2-1 and Table 2-2.
Subsequently, the sample of mono-O-(phytanyl)pentaerythritol/water system was subjected to differential scanning calorimetry (DSC) in a temperature range between −45° C. and 70° C. DSC analysis employed the Seiko SSC/560U differential scanning calorimeter (Seiko Instruments Inc.). The sample of mono-O-(phytanyl)pentaerythritol/water system (72.4% by mass) prepared by the above method was sealed in a DSC cell, and the sample was incubated while cooling at −45° C. for 3 hours to thoroughly form a hydrated solid of mono-O-(phytanyl)pentaerythritol (hereafter abbreviated as “hydrated solid”). Subsequently, this hydrated solid was heated at a rate of temperature increase of 0.5° C./minute and a melting behavior of the hydrated solid was inspected by DSC analysis. As a result, an endothermic peak resulting from melting of the hydrated solid that begins at around −40° C. and ends at around −27° C. and an endothermic peak resulting from ice melting observed between −10° C. and 1° C. were observed, as shown in FIG. 4. In FIG. 4, the left peak is the endothermic peak resulting from melting of the hydrated solid and the right peak is the endothermic peak resulting from ice melting. Although analysis was conducted up to 70° C., other thermal transition was not observed. Substantially the same results were obtained at other concentrations. Thus, the TK of mono-O-(phytanyl)pentaerythritol was concluded to be 0° C. or lower.

A short description of series [2]: Formation and structure of cubic liquid crystals by polarizing microscopy (penetration method) and SAXS. It counts as physicochemical. The text has this:
Whether or not the amphiphilic lipid/water system forms cubic liquid crystals and whether or not such composition is type I or II can be easily determined by the penetration method. A small amount (several mg) of amphiphilic lipids is placed on a glass slide for a microscope, and slight pressure is applied with a glass cover to form a thin layer of amphiphilic lipids (diameter: about 1 to 5 mm) with a thickness of about 10 μm in the gap between the glass slide and the glass cover. Upon addition of water or an aqueous medium from a side of the gap between the glass slide and the glass cover by capillary action, water gradually invades the amphiphilic lipid thin layer from the exterior edge, and a water content gradient is formed from the amphiphilic lipid thin layer/water interface toward the inside of the amphiphilic lipid thin layer. Polarizing microscopic observation thereof enables the determination of a phase type formed depending on the concentration of the amphiphilic lipid/water system. […] In FIG. 2, 4 regions are observed. The rightmost region in the photograph indicates a water region, and the other regions indicate hydrous amphiphilic lipid regions. In the photograph, the rightmost regions indicates the highest water content and the leftmost region indicates a region of amphiphilic lipids that has not yet been penetrated by water. […] Since cubic liquid crystals are stably formed at the interface of excess water and the amphiphilic lipid portion, such crystals are found to be of type II.
To this end, whether or not the liquid crystal structure has cubic lattices may be investigated by the small-angle x-ray scattering (SAXS) assay. In this process, a sample of an amphiphilic lipid/water system at a given concentration may be introduced into a quartz X-ray capillary tube, the capillary may be sealed with an oxygen burner, and the resultant may be subjected to the SAXS assay.
The cubic liquid crystal composition of the present invention is not particularly limited. […] Thus, spaces and lattice constants can be easily determined. The peak values of small angle X-ray scattering or the cubic lattice size of cubic liquid crystals in the presence of an excess aqueous solvent are at constant levels regardless of the lipid concentration. The coexistence state of cubic liquid crystals and an excess aqueous medium can be confirmed by the SAXS assay. Thus, whether or not the cubic liquid crystals are of type II can be easily determined.
In equations, nL and nW are actually measurable, and ac can be measured by the SAXS experiment. Thus, the dhc value can be determined based on equations (ii) and (iii). […] Based on such comparison, whether or not the cubic liquid crystal structure is of a bicontinuous type can be determined.
Mono-O-(3,7,11,15-tetramethylhexadecyl)pentaerythritol (hereafter referred to as “mono-O-(phytanyl)pentaerythritol,” formula (5) above) and pure water were introduced into a mixing device, and incubation was carried out while performing 100 or more times of mixing operations at room temperature (23° C.) over the period of 48 hours. Thus, a homogeneously mixed sample of mono-O-(phytanyl)pentaerythritol/water system was obtained. This sample of mono-O-(phytanyl)pentaerythritol/water system appeared to be a transparent gel composition.
Subsequently, the thus obtained sample of mono-O-(phytanyl)pentaerythritol/water system (the concentration of the amphiphilic compound: 74.6% by mass) was observed by polarizing microscopy. In entire region of the lipid portions, optically isotropic textures peculiar to the cubic liquid crystals were observed (FIG. 3). In FIG. 3, the right region indicates water and the left region indicates the sample of mono-O-(phytanyl)pentaerythritol/water system. […] Such observation indicates the formation of cubic liquid crystals.
Subsequently, the sample of mono-O-(phytanyl)pentaerythritol/water system was confirmed to be a cubic liquid crystal by small-angle x-ray scattering (SAXS). […]

For series [3] the following is noted: literature; cited from earlier work.
Where [4] appears, read: lipid alone, total amphiphilic compound content 60% by mass (excess water).

For the compound `CC(C)CCCC(C)CCCC(C)CCCC(C)CCOC1OC[C@@H](O)C(O)C1O` (some centres unmarked) [formula (13), reference compound], in series [1] (listed as β-XP), the “TK (Krafft temperature)” value is “about 10 °C”. Moreover, the “maximal temperature at which the cubic liquid crystal structure is formed” value in series [2] amounted to 75 °C. In series [2] (setting [4]), the “diameter of the water channel of the cubic liquid crystals” value worked out at 3.8 nm and the “lattice constant of the cubic liquid crystals” value worked out at 9.2 nm. Moreover, in series [3], the Krafft temperature is 10 °C.

On to `CC(C)CCCC(C)CCCC(C)CCCC(C)CCCC(=O)OC[C@H](O)[C@H]1OC(=O)C(O)=C1O` (stereo partly drawn) [formula (15), 6-O-(5,9,13,17-tetramethyloctadecanoyl)-L-ascorbic acid], for which the “Krafft temperature (° C.)” value in series [1] (amphiphilic compound alone) was 0 °C or lower. In addition, in series [1], the “TK (Krafft temperature)” value is not above 0 °C. Also, the lattice constant in series [2] (Ia3d, 69% by mass, 30° C.) is on record as 17.4 nm; in series [2] (Ia3d, 69% by mass, 40° C.) it was 16.9 nm; in series [2] (Ia3d, 69% by mass, 50° C.) it was 17.0 nm; in series [2] (Pn3m, 61% by mass, 1° C.), 12.2 nm; in series [2] (Pn3m, 61% by mass, 20° C.) it was 12.2 nm; in series [2] (Pn3m, 61% by mass, 30° C.), 12.1 nm. For the same compound, the lattice constant in series [2] (Pn3m, 61% by mass, 40° C.) came out at 11.4 nm; in series [2] (Pn3m, 61% by mass, 50° C.) it was 11.0 nm; in series [2] (Pn3m, 61% by mass, 60° C.) it was 10.1 nm. Further, the “Temperature at which formation of cubic liquid crystals was observed (° C.)” value in series [2] (Table 13, 69% by mass, two-phase system of Pn3m and Ia3d cubic liquid crystals) is 20 (Two-phase system of Pn3m and Ia3d ° C.

As for `CCCC/C=C\CCCCCCCC(=O)OCC(O)CO` (centres unmarked) [monomyristolein], the Krafft temperature in series [3] is 35 °C.

`CCCCCCCCCCCCCCCCCC(=O)OCC(O)CO` (centres unmarked) [monooctadecanoin]: the Krafft temperature in series [3] was 80 °C.

For the compound `CCCCCCCC/C=C\CCCCCCCC(=O)OCC(O)CO` (centres unmarked) [monoolein], in series [3], the Krafft temperature is 15 °C.

On to `CCCCCC/C=C\CCCCCCCCCC(=O)OC[C@H](O)CO` [monovaccenin], for which the Krafft temperature in series [3] was 15 °C.

On to `CC(C)CCCC(C)CCCC(C)CCCC(C)(O)C(O)CO` (centres unmarked) [phytantriol, 3,7,11,15-tetramethylhexadecyl-1,2,3-triol], for which, in series [3], the “Temperature at which cubic liquid crystals are transformed into inverted hexagonal liquid crystals” value is not below 40 °C.

As for monopentadecenoin, in series [3], the Krafft temperature was 30 °C.
